This is an account of results in ChEMBL document CHEMBL3046517, “Synthesis and antimicrobial study of fluoroquinolone-based 4-thiazolidinones” (2010).

By MIC is commonly meant the lowest concentration that inhibits growth of the organism. Read a high MIC as a less susceptible organism.

Common to all, as to assay type: functional
One test concerns Aspergillus clavatus. The test is described as follows: Antifungal activity against Aspergillus clavatus by broth dilution method. For orientation: Dilution methods test growth across graded concentrations, often in twofold steps.
Another test deals with Aspergillus niger. Briefly: Antifungal activity against Aspergillus niger by broth dilution method.
In a further test the test system is Candida albicans. The test is described as follows: Antifungal activity against Candida albicans by broth dilution method.
The next test concerns Streptococcus pyogenes. The test is described as follows: Antibacterial activity against Streptococcus pyogenes by broth dilution method.
The next test has as its system Staphylococcus aureus. Briefly: Antibacterial activity against Staphylococcus aureus by broth dilution method.
For another test, the system named is Pseudomonas aeruginosa. Briefly: Antibacterial activity against Pseudomonas aeruginosa by broth dilution method.
A further test concerns Escherichia coli. Briefly: Antibacterial activity against Escherichia coli by broth dilution method.

In brackets after ≈: the same amount, converted by molar mass.

For the molecule `O=C(N/N=C\c1ccccc1[N+](=O)[O-])c1cn(C2CC2)c2cc(Cl)c(F)cc2c1=O`, the MIC in the test with Aspergillus clavatus was above 1000 µg/mL; against Aspergillus niger it was 1000 µg/mL (≈ 2330 µM); in the test on Candida albicans, 500 µg/mL (≈ 1170 µM); with Streptococcus pyogenes, 200 µg/mL (≈ 466 µM); against Staphylococcus aureus it was 100 µg/mL (≈ 233 µM); in the test on Pseudomonas aeruginosa, 200 µg/mL (≈ 466 µM). In addition, in the test with Escherichia coli, the MIC was determined as 500 µg/mL (≈ 1170 µM).
In the case of `COc1ccc(/C=N\NC(=O)c2cn(C3CC3)c3cc(Cl)c(F)cc3c2=O)cc1`, the MIC in the test with Aspergillus clavatus was above 1000 µg/mL; against Aspergillus niger it was above 1000 µg/mL; with Candida albicans, 500 µg/mL (≈ 1210 µM); against Streptococcus pyogenes it was 1000 µg/mL (≈ 2420 µM); with Staphylococcus aureus, 500 µg/mL (≈ 1210 µM); in the test on Pseudomonas aeruginosa, 500 µg/mL (≈ 1210 µM). Further, 200 µg/mL (≈ 483 µM) was the least that counted as inhibitory with Escherichia coli (MIC).
`COc1ccc(N2CCN(c3cc4c(cc3F)c(=O)c(C(=O)N/N=C\c3ccc(F)cc3)cn4C3CC3)CC2)cc1`: the MIC in the test on Aspergillus clavatus, against Aspergillus niger, in the test with Candida albicans, with Streptococcus pyogenes, in the test with Staphylococcus aureus and against Pseudomonas aeruginosa was 500 µg/mL (≈ 897 µM) in each case. This molecule also displayed a minimum inhibitory concentration (MIC) against Escherichia coli of 250 µg/mL (≈ 448 µM).
On to `COc1ccc(N2CCN(c3cc4c(cc3F)c(=O)c(C(=O)NN3C(=O)CSC3c3ccc(Cl)cc3)cn4C3CC3)CC2)cc1` (stereo not drawn), for which the MIC against Aspergillus clavatus is above 1000 µg/mL; in the test on Aspergillus niger, 500 µg/mL (≈ 771 µM); with Candida albicans it was 1000 µg/mL (≈ 1540 µM); against Streptococcus pyogenes it was 1000 µg/mL (≈ 1540 µM); against Staphylococcus aureus, 100 µg/mL (≈ 154 µM); against Pseudomonas aeruginosa it was 500 µg/mL (≈ 771 µM). Moreover, in the test with Escherichia coli, the MIC was 500 µg/mL (≈ 771 µM).
As to `COc1ccc(N2CCN(c3cc4c(cc3F)c(=O)c(C(=O)NN3C(=O)CSC3c3cccc([N+](=O)[O-])c3)cn4C3CC3)CC2)cc1` (stereo not drawn), the MIC with Aspergillus clavatus was above 1000 µg/mL; against Aspergillus niger, 1000 µg/mL (≈ 1520 µM); in the test on Candida albicans, 1000 µg/mL (≈ 1520 µM); in the test on Streptococcus pyogenes, 1000 µg/mL (≈ 1520 µM); against Staphylococcus aureus, 500 µg/mL (≈ 759 µM); against Pseudomonas aeruginosa, 200 µg/mL (≈ 304 µM). Further, the lowest concentration to inhibit growth in the test with Escherichia coli (MIC) was 500 µg/mL (≈ 759 µM).
In the case of `COc1ccc(N2CCN(c3cc4c(cc3F)c(=O)c(C(=O)N/N=C\c3ccccc3[N+](=O)[O-])cn4C3CC3)CC2)cc1`, the MIC in the test on Aspergillus clavatus came out at 1000 µg/mL (≈ 1710 µM); against Aspergillus niger it was 1000 µg/mL (≈ 1710 µM); against Candida albicans, 1000 µg/mL (≈ 1710 µM); with Streptococcus pyogenes it was 150 µg/mL (≈ 257 µM); in the test with Staphylococcus aureus, 150 µg/mL (≈ 257 µM); in the test with Pseudomonas aeruginosa, 100 µg/mL (≈ 171 µM). In addition, in the test with Escherichia coli, the MIC came to 50 µg/mL (≈ 85.5 µM).
Consider `COc1ccc(N2CCN(c3cc4c(cc3F)c(=O)c(C(=O)NN3C(=O)CSC3c3ccccc3O)cn4C3CC3)CC2)cc1` (stereo not drawn), for which the MIC in the test with Aspergillus clavatus is 1000 µg/mL (≈ 1590 µM); in the test on Aspergillus niger, 1000 µg/mL (≈ 1590 µM); in the test on Candida albicans, 500 µg/mL (≈ 794 µM); against Streptococcus pyogenes it was 500 µg/mL (≈ 794 µM); in the test with Staphylococcus aureus, 500 µg/mL (≈ 794 µM); with Pseudomonas aeruginosa, 1000 µg/mL (≈ 1590 µM). In the test with Escherichia coli, this molecule had an MIC of 500 µg/mL (≈ 794 µM).
Regarding `O=C(N/N=C\c1ccccc1)c1cn(C2CC2)c2cc(Cl)c(F)cc2c1=O`, the MIC came to 1000 µg/mL (≈ 2610 µM) in the test with Aspergillus clavatus; 1000 µg/mL (≈ 2610 µM) against Aspergillus niger; 500 µg/mL (≈ 1300 µM) with Candida albicans; 1000 µg/mL (≈ 2610 µM) in the test with Streptococcus pyogenes; 500 µg/mL (≈ 1300 µM) in the test on Staphylococcus aureus; 1000 µg/mL (≈ 2610 µM) in the test on Pseudomonas aeruginosa. For the same molecule, inhibition of growth against Escherichia coli (MIC) required 500 µg/mL (≈ 1300 µM).
As for `O=C(N/N=C\c1cccc([N+](=O)[O-])c1)c1cn(C2CC2)c2cc(Cl)c(F)cc2c1=O`, the MIC in the test on Aspergillus clavatus is above 1000 µg/mL; against Aspergillus niger, 1000 µg/mL (≈ 2330 µM); in the test with Candida albicans it was 1000 µg/mL (≈ 2330 µM); against Streptococcus pyogenes, 1000 µg/mL (≈ 2330 µM); against Staphylococcus aureus, 1000 µg/mL (≈ 2330 µM); in the test on Pseudomonas aeruginosa, 200 µg/mL (≈ 466 µM). Further, the MIC against Escherichia coli came out at 200 µg/mL (≈ 466 µM).
